Biological target: T1, Human ATX protein (Homo sapiens, UniProt Q13822)
T1 construct: made in house
Assay: Autotaxin (ATX) assay, FRET with FS-3 substrate
Format: biochemical
Conditions: upper bound bins (no greater than 100, 250 or 500 nM); FS-3 2 μM, ATX 1.0 μg/mL
Method in brief: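 Hydrolysis of the FRET substrate FS-3 (2 μM final) unquenches fluorescein, read at excitation 485 nm and emission 538 nm after 2 h at room temperature, protected from light. Purified human ATX (1.0 μg/mL) and compound were first incubated for 30 min in pH 7.4 Tris/salt buffer containing 1 mg/mL fatty acid-free BSA.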

## CC(C)(C)OC(=O)N1CCN(C(=O)c2cc3n(n2)CCN(C(=O)OCc2cc(C(F)(F)F)cc(C(F)(F)F)c2)C3)CC1(C)C [Example 466]
  IC50: ≤ 100 nM

## CC1CN(CC(=O)c2cc3n(n2)CCCN(C(=O)OCc2cc(Cl)cc(C(F)(F)F)c2)C3)CCO1 (stereo not shown) [Example 268]
  IC50: ≤ 100 nM

## CC1(C)CN(c2cc3n(n2)CCCN(C(=O)OCc2cc(C(F)(F)F)cc(C(F)(F)F)c2)C3)CCN1 [Example 340]
  IC50: ≤ 100 nM

## CN1CCN(C(=O)c2cc3n(n2)CCCN(C(=O)OCc2cc(Cl)cc(Cl)c2)C3)CC1 [Example 25, 3,5-Dichlorobenzyl 2-(4-methylpiperazine-1-carbonyl)-7,8-dihydro-4H-pyrazolo[1,5-a][1,4]diazepine-5(6H)-carboxylate]
  IC50: ≤ 100 nM

## O=C(OCc1cc(C(F)(F)F)cc(C(F)(F)F)c1)N1CCCn2nc(C3CCNCC3)cc2C1 [Example 375, 3,5-bis(trifluoromethyl)benzyl 2-(piperidin-4-yl)-7,8-dihydro-4H-pyrazolo[1,5-a][1,4]diazepine-5(6H)-carboxylate]
  IC50: ≤ 100 nM

## CC(Nc1cc2n(n1)CCCN(C(=O)OCc1cc(C(F)(F)F)cc(C(F)(F)F)c1)C2)C(=O)O (stereo not shown) [Example 361, 2-((5-(((3,5-bis(trifluoromethyl)benzyl)oxy)carbonyl)-5,6,7,8-tetra-hydro-4H-pyrazolo[1,5-a][1,4]diazepin-2-yl)amino)propanoic acid]
  IC50: ≤ 250 nM

## CN1C2CCC1CN(C(=O)c1cc3n(n1)CCCN(C(=O)OCc1cc(C(F)(F)F)cc(C(F)(F)F)c1)C3)C2 [Example 225]
  IC50: ≤ 100 nM

## O=C(CN1CC2CC2C1)c1cc2n(n1)CCN(C(=O)OCc1cc(C(F)(F)F)cc(C(F)(F)F)c1)C2 (stereo not shown) [Example 258]
  IC50: ≤ 100 nM

## O=C(OCc1cc(C(F)(F)F)cc(C(F)(F)F)c1)N1CCCn2nc(CNC3COC3)cc2C1 [Example 511]
  IC50: ≤ 250 nM

## N#CC1CNCCN1C(=O)c1cc2n(n1)CCCN(C(=O)OCc1cc(C(F)(F)F)cc(C(F)(F)F)c1)C2 (stereo not shown) [Example 245]
  IC50: ≤ 100 nM

## O=C(OCc1cc(Cl)cc(C(F)(F)F)c1)N1CCCn2nc(C(=O)N3CCNCC3C(F)(F)F)cc2C1 (stereo not shown) [Example 181]
  IC50: ≤ 100 nM

## CN1CCN(C(=O)c2cc3n(c2)CCCN(C(=O)OCc2cc(Cl)cc(C(F)(F)F)c2)C3)CC1 [Example 277, 3-chloro-5-(trifluoromethyl)benzyl 8-(4-methylpiperazine-1-carbonyl)-4,5-dihydro-1H-pyrrolo[1,2-a][1,4]diazepine-2(3H)-carboxylate]
  IC50: ≤ 100 nM

## O=C(OCc1cc(C(F)(F)F)cc(C(F)(F)F)c1)N1CCCn2nc(CN3CCC(F)CC3)cc2C1 [Example 510]
  IC50: ≤ 100 nM

## O=C(OCc1cc(Cl)cc(C(F)(F)F)c1)N1CCCn2nc(C(=O)N3CCNCC3)cc2C1 [Example 158, 3-chloro-5-(trifluoromethyl)benzyl 2-(piperazine-1-carbonyl)-7,8-dihydro-4H-pyrazolo[1,5-a][1,4]diazepine-5(6H)-carboxylate]
  IC50: ≤ 100 nM

## CC1CC(Nc2cc3n(n2)CCCN(C(=O)OCc2cc(C(F)(F)F)cc(C(F)(F)F)c2)C3)CCN1 (stereo not shown) [Example 315]
  IC50: ≤ 100 nM

## O=C(OCc1cc(Cl)cc(C(F)(F)F)c1)N1CCn2nc(C(=O)N3CCC(O)CC3)cc2C1 [Example 479]
  IC50: ≤ 100 nM

## CN1CCN(C(=O)c2cc3n(n2)CCN(C(=O)OCc2cc(C(F)(F)F)cc(C(F)(F)F)c2)C3)CC1 [Example 489]
  IC50: ≤ 100 nM

## NC1CN(C(=O)c2cc3n(n2)CCN(C(=O)OCc2cc(C(F)(F)F)cc(C(F)(F)F)c2)C3)C1 [Example 424]
  IC50: ≤ 100 nM

## CN1CCN(Cc2cc3n(n2)CCCN(C(=O)OCc2cc(C(F)(F)F)cc(C(F)(F)F)c2)C3)CC1 [Example 290, 3,5-bis(trifluoromethyl)benzyl 2-((4-methylpiperazin-1-yl)methyl)-7,8-dihydro-4H-pyrazolo[1,5-a][1,4]diazepine-5(6H)-carboxylate]
  IC50: ≤ 500 nM

## O=C(OCc1cc(C(F)(F)F)cc(C(F)(F)F)c1)N1CCn2nc(C3=CCNCC3)cc2C1 [Example 516]
  IC50: ≤ 100 nM

## O=C(O)C1CCN(C(=O)c2cc3n(n2)CCN(C(=O)OCc2cc(C(F)(F)F)cc(C(F)(F)F)c2)C3)CC1 [Example 418]
  IC50: ≤ 100 nM

## O=C(NC1=NCCS1)c1cc2n(n1)CCCN(C(=O)OCc1cc(C(F)(F)F)cc(C(F)(F)F)c1)C2 [Example 173]
  IC50: ≤ 100 nM

## CN1CCN(C(=O)c2cc3n(n2)CCCN(C(=O)OCc2cc(Cl)cc(C(F)(F)F)c2)C3)C2(CCCC2)C1 [Example 232]
  IC50: ≤ 100 nM

## O=C(O)C1CC2CCCC(C1)N2C(=O)c1cc2n(n1)CCCN(C(=O)OCc1ccc(C(F)(F)F)cc1)C2 (stereo not shown) [Example 60]
  IC50: ≤ 100 nM

## O=C(OCc1cc(Cl)cc(Cl)c1)N1CCn2cc(C(F)(F)F)nc2C1 [Example 131, 3,5-Dichlorobenzyl 2-(trifluoromethyl)-5,6-dihydroimidazo[1,2-a]pyrazine-7(8H)-carboxylate]
  IC50: ≤ 500 nM

## Cc1cc(-c2cc3n(n2)CCCN(C(=O)OCc2cc(C(F)(F)F)cc(C(F)(F)F)c2)C3)ccn1 [Example 368]
  IC50: ≤ 100 nM

## O=C(OCc1cc(C(F)(F)F)cc(C(F)(F)F)c1)N1CCn2nc(C3CCNCC3)cc2C1 [Example 443]
  IC50: ≤ 100 nM

## O=C(OCc1cc(Cl)cc(Cl)c1)N1CCCn2nc(-c3nnn[nH]3)cc2C1 [Example 123, 3,5-Dichlorobenzyl 2-(1H-tetrazol-5-yl)-7,8-dihydro-4H-pyrazolo[1,5-a][1,4]diazepine-5(6H)-carboxylate]
  IC50: ≤ 250 nM

## CCOC(=O)c1cc2n(n1)CCN(C(=O)OCc1cc(C(F)(F)F)cc(C(F)(F)F)c1)C2 [Example 403]
  IC50: ≤ 100 nM

## O=C(OCc1cc(C(F)(F)F)cc(C(F)(F)F)c1)N1CCCn2nc(C3CC4CCC(C3)N4)cc2C1 (stereo not shown) [Example 377]
  IC50: ≤ 100 nM

## O=C(OCc1cc(Cl)cc(C(F)(F)F)c1)N1CCn2nc(C(=O)N3CC4CCC(C3)N4)cc2C1 [Example 429]
  IC50: ≤ 100 nM

## CN1CCN(C(=O)c2cc3n(n2)CCCN(C(=O)OCc2cc(C(F)(F)F)cc(C(F)(F)F)c2)C3)C(C)(C)C1 [Example 218]
  IC50: ≤ 100 nM

## O=C(O)C1CCN(C(=O)c2cc3n(n2)CCCN(C(=O)OCc2cc(Cl)cc(Cl)c2)C3)CC1 [Example 87, 1-(5-(((3,5-Dichlorobenzyl)oxy)carbonyl)-5,6,7,8-tetrahydro-4H-pyrazolo[1,5-a][1,4]diazepine-2-carbonyl)piperidine-4-carboxylic acid]
  IC50: ≤ 100 nM

## O=C(OCc1cc(C(F)(F)F)cc(C(F)(F)F)c1)N1CCn2nc(C(=O)N3CCCCC3)cc2C1 [Example 493]
  IC50: ≤ 100 nM

## CC(C)(C)OC(=O)N1CCN(C(=O)c2cc3n(n2)CCN(C(=O)OCc2cc(C(F)(F)F)cc(C(F)(F)F)c2)C3)C(C)(C)C1 [Example 462]
  IC50: ≤ 100 nM

## O=C(OCc1cc(Cl)cc(C(F)(F)F)c1)N1CCCn2nc(C(=O)N3CCC4NCCC43)cc2C1 (stereo not shown) [Example 166]
  IC50: ≤ 100 nM

## CCOC(=O)c1cc2n(n1)CCCN(C(=O)OCCc1cc(C(F)(F)F)cc(C(F)(F)F)c1)C2 [Example 141, 5-(3,5-Bis(trifluoromethyl)phenethyl) 2-ethyl 7,8-dihydro-4H-pyrazolo[1,5-a][1,4]diazepine-2,5(6H)-dicarboxylate]
  IC50: ≤ 500 nM

## CC(N)c1cc2n(n1)CCN(C(=O)OCc1cc(C(F)(F)F)cc(C(F)(F)F)c1)C2 (stereo not shown) [Example 395, 3,5-bis(Trifluoromethyl)benzyl 2-(1-aminoethyl)-6,7-dihydropyrazolo[1,5-a]pyrazine-5(4H)-carboxylate]
  IC50: ≤ 100 nM

## CN(C)C(=O)c1cc2n(n1)CCCN(C(=O)OCc1cc(Cl)cc(Cl)c1)C2 [Example 28, 3,5-Dichlorobenzyl 2-(dimethylcarbamoyl)-7,8-dihydro-4H-pyrazolo[1,5-a][1,4]diazepine-5(6H)-carboxylate]
  IC50: ≤ 100 nM

## O=C(OCc1cc(C(F)(F)F)cc(C(F)(F)F)c1)N1CCCn2nc(S(=O)(=O)N3C4CCCC3CCC4)cc2C1 [Example 306]
  IC50: ≤ 100 nM

## O=C(NC1CCC1)c1cc2n(n1)CCCN(C(=O)OCc1cc(Cl)cc(Cl)c1)C2 [Example 15, 3,5-Dichlorobenzyl 2-(cyclobutylcarbamoyl)-7,8-dihydro-4H-pyrazolo[1,5-a][1,4]diazepine-5(6H)-carboxylate]
  IC50: ≤ 100 nM

## Cc1cc(-c2cc3n(n2)CCCN(C(=O)OCc2cc(Cl)cc(C(F)(F)F)c2)C3)ccn1 [Example 370]
  IC50: ≤ 100 nM

## O=C(OCc1cc(C(F)(F)F)cc(C(F)(F)F)c1)N1CCCn2nc(NC3CCNCC3)cc2C1 [Example 313, 3,5-bis(trifluoromethyl)benzyl 2-(piperidin-4-ylamino)-7,8-dihydro-4H-pyrazolo[1,5-a][1,4]diazepine-5(6H)-carboxylate]
  IC50: ≤ 250 nM

## COC(=O)C1CCN(C(=O)c2cc3n(n2)CCN(C(=O)OCc2cc(C(F)(F)F)cc(C(F)(F)F)c2)C3)CC1 [Example 494]
  IC50: ≤ 100 nM

## O=C(O)c1cc2n(n1)CCCN(C(=O)COc1cc(C(F)(F)F)cc(C(F)(F)F)c1)C2 [Example 117, 5-(2-(3,5-Bis(trifluoromethyl)phenoxy)acetyl)-5,6,7,8-tetrahydro-4H-pyrazolo[1,5-a][1,4]diazepine-2-carboxylic acid]
  IC50: ≤ 500 nM

## O=C(OCc1cc(C(F)(F)F)cc(C(F)(F)F)c1)N1CCCn2nc(CN3C4CCCC3CCC4)cc2C1 [Example 293]
  IC50: ≤ 100 nM

## CC1(C)CN(C(=O)c2cc3n(n2)CCN(C(=O)OCc2cc(C(F)(F)F)cc(C(F)(F)F)c2)C3)CCN1 [Example 436]
  IC50: ≤ 100 nM

## O=C(O)c1cc2n(n1)CCCN(C(=O)CCc1cc(C(F)(F)F)cc(C(F)(F)F)c1)C2 [Example 82, 5-(3-(3,5-bis(Trifluoromethyl)phenyl)propanoyl)-5,6,7,8-tetrahydro-4H-pyrazolo[1,5-a][1,4]diazepine-2-carboxylic acid]
  IC50: ≤ 100 nM

## O=C(OCc1cc(Cl)cc(Cl)c1)N1CCCn2nc(C(=O)N3CCOCC3)cc2C1 [Example 23, 3,5-Dichlorobenzyl 2-(morpholine-4-carbonyl)-7,8-dihydro-4H-pyrazolo[1,5-a][1,4]diazepine-5(6H)-carboxylate]
  IC50: ≤ 100 nM

From US20160039825A1 (BIOGEN MA INC., priority 2013, published 2016)
